# Calls of active or inactive are those of the source. No cut-off for these calls is given here.
# Experiments:
# [1] = system: Mus musculus; assay: Neurotoxicity in ip dosed albino CF1 mouse assessed as minimum dose required to cause toxicity after 0.5 hrs by rotarod test; type: organism-based; conditions: in vivo
# [2] = system: Mus musculus; assay: Neurotoxicity in albino CF1 mouse assessed as minimal motor impairment at 30 mg/kg, ip after 0.5 hrs by rotarod test; type: toxicity, organism-based; parameters: dose 30 mg/kg, route intraperitoneal; conditions: in vivo
# [3] = system: Mus musculus; assay: Anticonvulsant activity in albino CF1 mouse assessed as protection against maximal electroshock-induced seizures at 100 mg/kg, ip after 0.5 hrs; type: functional, organism-based; parameters: dose 100 mg/kg
# [4] = system: Mus musculus; assay: Anticonvulsant activity against subcutaneous metrazole-induced seizures in ip dosed albino CF1 mouse assessed as minimum effective dose after 4 hrs; type: functional; conditions: albino CF1, 4 h, read-out: MED
# [5] = system: Rattus norvegicus; assay: Neurotoxicity in albino Sprague-Dawley rat assessed as minimal motor impairment at 30 mg/kg, po by rotarod test; type: toxicity, organism-based; parameters: dose 30 mg/kg, route oral; conditions: in vivo
# [6] = system: Rattus norvegicus; assay: Anticonvulsant activity in albino Sprague-Dawley rat assessed as protection against maximal electroshock-induced seizures at 30 mg/kg, po after 0.25 hrs; type: functional, organism-based; parameters: dose 30 mg/kg
# [7] = system: Rattus norvegicus; assay: Anticonvulsant activity in albino Sprague-Dawley rat assessed as protection against maximal electroshock-induced seizures at 30 mg/kg, po after 0.5 hrs; type: functional, organism-based; parameters: dose 30 mg/kg
# [8] = system: Rattus norvegicus; assay: Anticonvulsant activity in albino Sprague-Dawley rat assessed as protection against maximal electroshock-induced seizures at 30 mg/kg, po after 1 hr; type: functional, organism-based; parameters: dose 30 mg/kg
# [9] = system: Rattus norvegicus; assay: Anticonvulsant activity in albino Sprague-Dawley rat assessed as protection against maximal electroshock-induced seizures at 30 mg/kg, po after 2 hrs; type: functional, organism-based; parameters: dose 30 mg/kg
# [10] = system: Rattus norvegicus; assay: Anticonvulsant activity in albino Sprague-Dawley rat assessed as protection against maximal electroshock-induced seizures at 30 mg/kg, po after 4 hrs; type: functional, organism-based; parameters: dose 30 mg/kg
# [11] = system: Mus musculus; assay: Neurotoxicity in albino CF1 mouse assessed as minimal motor impairment at 30 mg/kg, ip after 4 hrs by rotarod test; type: toxicity, organism-based; parameters: dose 30 mg/kg, route intraperitoneal; conditions: in vivo
# [12] = system: Mus musculus; assay: Neurotoxicity in albino CF1 mouse assessed as minimal motor impairment at 100 mg/kg, ip after 0.5 hrs by rotarod test; type: toxicity, organism-based; parameters: dose 100 mg/kg, route intraperitoneal; conditions: in vivo
# [13] = system: Mus musculus; assay: Neurotoxicity in albino CF1 mouse assessed as minimal motor impairment at 100 mg/kg, ip after 4 hrs by rotarod test; type: toxicity, organism-based; parameters: dose 100 mg/kg, route intraperitoneal; conditions: in vivo
# [14] = system: Mus musculus; assay: Neurotoxicity in albino CF1 mouse assessed as minimal motor impairment at 300 mg/kg, ip after 4 hrs by rotarod test; type: toxicity, organism-based; parameters: dose 300 mg/kg, route intraperitoneal; conditions: in vivo
# [15] = system: Mus musculus; assay: Anticonvulsant activity in albino CF1 mouse assessed as protection against maximal electroshock-induced seizures at 100 mg/kg, ip after 4 hrs; type: functional, organism-based; parameters: dose 100 mg/kg
# [16] = system: Mus musculus; assay: Anticonvulsant activity in albino CF1 mouse assessed as protection against maximal electroshock-induced seizures at 300 mg/kg, ip after 0.5 hrs; type: functional, organism-based; parameters: dose 300 mg/kg
# [17] = system: Mus musculus; assay: Anticonvulsant activity in albino CF1 mouse assessed as protection against maximal electroshock-induced seizures at 300 mg/kg, ip after 4 hrs; type: functional, organism-based; parameters: dose 300 mg/kg
# [18] = system: Mus musculus; assay: Anticonvulsant activity in albino CF1 mouse assessed as protection against subcutaneous metrazole-induced seizures at 30 mg/kg, ip after 0.5 hrs; type: functional, organism-based; parameters: dose 30 mg/kg
# [19] = system: Mus musculus; assay: Anticonvulsant activity in albino CF1 mouse assessed as protection against subcutaneous metrazole-induced seizures at 30 mg/kg, ip after 4 hrs; type: functional, organism-based; parameters: dose 30 mg/kg
# [20] = system: Mus musculus; assay: Anticonvulsant activity in albino CF1 mouse assessed as protection against subcutaneous metrazole-induced seizures at 100 mg/kg, ip after 0.5 hrs; type: functional, organism-based; parameters: dose 100 mg/kg
# [21] = system: Mus musculus; assay: Anticonvulsant activity in albino CF1 mouse assessed as protection against subcutaneous metrazole-induced seizures at 100 mg/kg, ip after 4 hrs; type: functional, organism-based; parameters: dose 100 mg/kg
# [22] = system: Mus musculus; assay: Anticonvulsant activity in albino CF1 mouse assessed as protection against subcutaneous metrazole-induced seizures at 300 mg/kg, ip after 0.5 hrs; type: functional, organism-based; parameters: dose 300 mg/kg
# [23] = system: Mus musculus; assay: Anticonvulsant activity in albino CF1 mouse assessed as protection against subcutaneous metrazole-induced seizures at 300 mg/kg, ip after 4 hrs; type: functional, organism-based; parameters: dose 300 mg/kg
# [24] = system: Mus musculus; assay: Neurotoxicity in albino CF1 mouse assessed as minimal motor impairment at 30 to 300 mg/kg, po after 4 hrs by rotarod test; type: toxicity, organism-based; parameters: dose 30-300 mg/kg, route oral; conditions: in vivo
# [25] = system: Mus musculus; assay: Anticonvulsant activity in albino CF1 mouse assessed as protection against maximal electroshock-induced seizures at 30 mg/kg, ip after 0.5 hrs; type: functional, organism-based; parameters: dose 30 mg/kg
# [26] = system: Mus musculus; assay: Anticonvulsant activity in albino CF1 mouse assessed as protection against maximal electroshock-induced seizures at 30 mg/kg, ip after 4 hrs; type: functional, organism-based; parameters: dose 30 mg/kg
# [27] = system: Mus musculus; assay: Neurotoxicity in ip dosed albino CF1 mouse assessed as minimum dose required to cause toxicity after 4 hrs by rotarod test; type: organism-based; conditions: in vivo
# [28] = system: Mus musculus; assay: Anticonvulsant activity against maximal electroshock-induced seizures in ip dosed albino CF1 mouse assessed as minimum effective dose after 0.5 hrs; type: functional; conditions: read-out: MED
# [29] = system: Mus musculus; assay: Anticonvulsant activity against maximal electroshock-induced seizures in ip dosed albino CF1 mouse assessed as minimum effective dose after 4 hrs; type: functional; conditions: read-out: MED
# [30] = system: Mus musculus; assay: Anticonvulsant activity against subcutaneous metrazole-induced seizures in ip dosed albino CF1 mouse assessed as minimum effective dose after 0.5 hrs; type: functional; conditions: albino CF1, 0.5 h, read-out: MED
# [31] = system: Mus musculus; assay: Neurotoxicity in albino CF1 mouse assessed as minimal motor impairment at 30 to 300 mg/kg, ip after 0.5 hrs by rotarod test; conditions: in vivo
# [32] = system: Mus musculus; assay: Neurotoxicity in albino CF1 mouse assessed as minimal motor impairment at 300 mg/kg, ip after 0.5 hrs by rotarod test; type: toxicity, organism-based; parameters: dose 300 mg/kg, route intraperitoneal; conditions: in vivo
Structure (SMILES),MED [1] [mg/kg],Activity [2],Activity [3],minimal effective dose [4] [mg/kg],Activity [11],Activity [13],Activity [16],Activity [17],Activity [18],Activity [19],Activity [20],Activity [21],Activity [22],Activity [23],Activity [25],Activity [26],MED [27] [mg/kg],minimal effective dose [28] [mg/kg],minimal effective dose [29] [mg/kg],minimal effective dose [30] [mg/kg],also measured
Clc1ccc(-c2c[nH]c(-c3ccccc3)n2)cc1,100,Non-toxic,Active,> 300,Non-toxic,Non-toxic,Active,Active,inactive,inactive,inactive,inactive,inactive,inactive,inactive,inactive,> 300,> 30,100,> 300,Activity [5]: Non-toxic; Activity [6]: inactive; Activity [7]: inactive; Activity [8]: inactive; Activity [9]: inactive; Activity [10]: inactive; Activity [12]: Non-toxic; Activity [14]: Non-toxic; Activity [15]: inactive; Activity [24]: Non-toxic; Activity [31]: Non-toxic
COc1cccc(-c2c[nH]c(-c3ccccc3)n2)c1,100,Non-toxic,Active,> 300,Non-toxic,Non-toxic,Active,inactive,inactive,inactive,inactive,inactive,inactive,inactive,inactive,inactive,> 300,> 30,> 300,> 300,Activity [5]: Non-toxic; Activity [6]: inactive; Activity [7]: inactive; Activity [8]: inactive; Activity [9]: inactive; Activity [10]: inactive; Activity [14]: Non-toxic; Activity [24]: Non-toxic; Activity [31]: Non-toxic
Clc1ccc(-c2nc(-c3ccccc3)c[nH]2)cc1,> 300,Non-toxic,inactive,> 300,Non-toxic,Non-toxic,inactive,inactive,inactive,inactive,inactive,inactive,inactive,inactive,inactive,inactive,> 300,> 300,> 300,> 300,Activity [12]: Non-toxic; Activity [32]: Non-toxic; Activity [14]: Non-toxic; Activity [15]: inactive; Activity [24]: Non-toxic; Activity [31]: Non-toxic
O=[N+]([O-])c1ccc(-c2nc(-c3cccc(C(F)(F)F)c3)c[nH]2)cc1,> 300,Non-toxic,inactive,> 300,Non-toxic,Non-toxic,inactive,Active,inactive,inactive,inactive,inactive,inactive,inactive,inactive,inactive,> 300,> 300,100,> 300,Activity [12]: Non-toxic; Activity [32]: Non-toxic; Activity [14]: Non-toxic; Activity [15]: inactive; Activity [24]: Non-toxic; Activity [31]: Non-toxic
c1ccc(-c2c[nH]c(-c3cccnc3)n2)cc1,100,Non-toxic,Active,> 300,Non-toxic,Non-toxic,Active,Active,inactive,inactive,Active,inactive,Active,inactive,inactive,inactive,100,100,100,100,Activity [5]: Non-toxic; Activity [6]: inactive; Activity [7]: inactive; Activity [8]: inactive; Activity [9]: inactive; Activity [10]: inactive; Activity [15]: inactive; Activity [31]: Non-toxic
